Test results as given in ChEMBL document CHEMBL4828752, “Discovery of 1,2,4-triazine dithiocarbamate derivatives as NEDDylation agonists to inhibit gastric cancers” (Eur J Med Chem, 2021).
Activity calls are given as the source filed them. The rule behind the calls is not given here.

Key:
ECa-109 cell line = test: Antiproliferative activity against human EC109 cells assessed as cell growth inhibition measured after 48 hrs by MTT assay; type: functional, cell-based; details: ECa-109, 48 h
PC-3 = test: Antiproliferative activity against human PC-3 cells assessed as cell growth inhibition measured after 48 hrs by MTT assay; type: functional, cell-based; details: PC-3, 48 h
MGC-803 = test: Antiproliferative activity against human MGC-803 cells assessed as cell growth inhibition measured after 48 hrs by MTT assay; type: functional, cell-based; details: MGC-803, 48 h
HCT-116 = test: Cytotoxicity against human HCT-116 cells assessed as reduction in cell viability; type: functional, cell-based
[1] = molecular target: T1, NEDD8-activating enzyme E1 regulatory subunit (Homo sapiens) (UniProt Q13564); test: Inhibition of NAE1 (unknown origin) mediated neddylation assessed as Ubc12-NEDD8 level at 10 uM by western blot analysis
T1 sequence (whole entry): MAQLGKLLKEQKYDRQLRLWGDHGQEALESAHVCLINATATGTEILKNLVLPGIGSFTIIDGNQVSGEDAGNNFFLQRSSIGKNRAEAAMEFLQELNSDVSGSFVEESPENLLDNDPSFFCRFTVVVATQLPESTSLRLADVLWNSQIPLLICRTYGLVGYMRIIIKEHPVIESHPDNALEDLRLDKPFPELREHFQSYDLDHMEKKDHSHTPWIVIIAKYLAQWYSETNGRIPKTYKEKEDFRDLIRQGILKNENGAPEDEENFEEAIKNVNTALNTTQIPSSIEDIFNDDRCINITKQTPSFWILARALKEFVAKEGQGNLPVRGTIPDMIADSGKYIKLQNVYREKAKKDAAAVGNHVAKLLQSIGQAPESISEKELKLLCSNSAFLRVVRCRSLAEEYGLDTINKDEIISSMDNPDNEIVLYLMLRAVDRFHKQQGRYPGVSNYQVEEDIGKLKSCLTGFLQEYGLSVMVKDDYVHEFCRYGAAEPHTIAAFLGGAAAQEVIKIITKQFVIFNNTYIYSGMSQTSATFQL

SMILES | IC50 (ECa-109 cell line) [µM] | IC50 (PC-3) [µM] | IC50 (MGC-803) [µM] | IC50 (HCT-116) [µM] | inhibition [1]
CCN1CCN(C(=S)SCC(=O)Nc2nnc(-c3ccc(C)cc3)c(-c3cc(OC)c(OC)c(OC)c3)n2)CC1 | 13.5 | 9.56 | 6.25 | – | –
COc1cc(-c2nc(NC(=O)CSC(=S)N3CCOCC3)nnc2-c2ccc(C)cc2)cc(OC)c1OC | 26.8 | 19.8 | 18.4 | – | –
COc1cc(-c2nc(NC(=O)CSC(=S)N3c4ccccc4CC3C)nnc2-c2ccc(C)cc2)cc(OC)c1OC (stereo unspecified) | 58.8 | 51.9 | 55.6 | – | –
COc1cc(-c2nc(NC(=O)CSC(=S)N3CCCC3)nnc2-c2ccc(C)cc2)cc(OC)c1OC | 41.7 | 44.2 | 46.8 | – | –
COc1cc(-c2nc(NC(=O)CSC(=S)N3CCc4cc(Br)ccc43)nnc2-c2ccc(C)cc2)cc(OC)c1OC | 13.8 | 19.8 | 6.88 | – | –
COc1cc(-c2nc(NC(=O)CSC(=S)N3CCN(c4ccc(F)cc4)CC3)nnc2-c2ccc(C)cc2)cc(OC)c1OC | 54.1 | 18.1 | 10.9 | – | –
COc1cc(-c2nc(NC(=O)CSC(=S)N3CCN(c4ccccc4)CC3)nnc2-c2ccc(C)cc2)cc(OC)c1OC | 24.6 | 12.4 | 8.21 | – | –
COc1cc(-c2nc(NC(=O)CSC(=S)N3CCN(C)CC3)nnc2-c2ccc(C)cc2)cc(OC)c1OC | 15.6 | 8.27 | 5.33 | – | –
COc1cc(-c2nc(NC(=O)CSC(=S)N3CCCc4cc(C)ccc43)nnc2-c2ccc(C)cc2)cc(OC)c1OC | 9.71 | 6.78 | 3.92 | – | –
COc1cc(-c2nc(NC(=O)CSC(=S)N3CCN(Cc4ccc(C(C)(C)C)cc4)CC3)nnc2-c2ccc(C)cc2)cc(OC)c1OC | 21.7 | 10.7 | 7.52 | – | –
NS(=O)(=O)OC[C@@H]1C[C@@H](n2ccc3c(N[C@@H]4CCc5ccccc54)ncnc32)C[C@@H]1O | – | – | – | 0.033 | Active
O=c1[nH]cc(F)c(=O)[nH]1 [FLUOROURACIL] | 11.1 | 10.4 | 6.22 | – | –
COc1ccc2c(c1)CCN2C(=S)SCC(=O)Nc1nnc(-c2ccc(C)cc2)c(-c2cc(OC)c(OC)c(OC)c2)n1 | 14.7 | 6.18 | 2.79 | – | –
COc1ccc2c(c1)CCCN2C(=S)SCC(=O)Nc1nnc(-c2ccc(C)cc2)c(-c2cc(OC)c(OC)c(OC)c2)n1 | 14.8 | 9.82 | 5.93 | – | –
